Test systems include OVCAR-4 ovarian; SNB-75 CNS; SR leukemia; HL-60(TB) leukemia; NCI-H522 lung; UO-31 renal; OVCAR-5 ovarian; OVCAR-3 ovarian; HCT-116 colon; CCRF-CEM leukemia.
What all share (test): inhibition of tumour cell growth, NCI panel, 48 h

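Exposure lasted 48 hours, with cells grown in 96-well plates and compounds tested at five concentrations. Abbreviation: GI50, concentration required for 50% inhibition of growth. TGI: total growth inhibition.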

Consider `CCOC(=O)c1c(Cl)c2c(n1Cc1cc(OC)cc(OC)c1)-c1oncc1CCC2`, for which the GI50 in the assay on OVCAR-4 ovarian was 1.91 µM; in the assay with SNB-75 CNS, 0.229 µM; in the assay on SR leukemia it was 0.121 µM; with HL-60(TB) leukemia, 0.293 µM; in the assay on NCI-H522 lung, 0.0304 µM; with UO-31 renal, 1.04 µM. The GI50 in the assay with OVCAR-5 ovarian is 0.812 µM; in the assay on OVCAR-3 ovarian it was 0.253 µM; with HCT-116 colon, 0.432 µM; in the assay with CCRF-CEM leukemia, 0.295 µM. The TGI with OVCAR-4 ovarian was above 85.3 µM; in the assay on SNB-75 CNS, 4.41 µM; in the assay on SR leukemia, above 100 µM; with HL-60(TB) leukemia, 1.03 µM; in the assay with NCI-H522 lung, 0.195 µM; in the assay on UO-31 renal, above 100 µM. In addition, the TGI in the assay with OVCAR-5 ovarian was above 100 µM; with OVCAR-3 ovarian it was 2.51 µM; with HCT-116 colon, above 100 µM; in the assay with CCRF-CEM leukemia it was above 100 µM.
Regarding `NC(=O)Oc1cc(OC(N)=O)cc(N(CCCl)CCCl)c1`, the GI50 was 14.8 µM with OVCAR-4 ovarian; 2.71 µM in the assay on SNB-75 CNS; 1.04 µM with SR leukemia; 1.58 µM with HL-60(TB) leukemia; 2.08 µM in the assay on NCI-H522 lung; 2.57 µM in the assay on UO-31 renal. Besides, the GI50 in the assay with OVCAR-5 ovarian is 4.35 µM; in the assay on OVCAR-3 ovarian, 4.74 µM; in the assay with HCT-116 colon it was 7.77 µM; in the assay with CCRF-CEM leukemia, 0.902 µM. In addition, the TGI is 79.3 µM with OVCAR-4 ovarian; 25.3 µM in the assay with SNB-75 CNS; above 100 µM in the assay with SR leukemia; above 100 µM in the assay on HL-60(TB) leukemia; 6.12 µM in the assay with NCI-H522 lung; 15.9 µM in the assay on UO-31 renal. Moreover, the TGI with OVCAR-5 ovarian is 30 µM; in the assay on OVCAR-3 ovarian, 25.9 µM; with HCT-116 colon, above 100 µM; in the assay on CCRF-CEM leukemia, above 100 µM.
For the compound `CN1CCN(Cc2ccc(Nc3ncc(Cl)c(Nc4ccccc4S(=O)(=O)N(C)C)n3)cc2)CC1`, the GI50 in the assay on OVCAR-4 ovarian is 0.072 µM; in the assay with SNB-75 CNS it was 0.0948 µM; in the assay on SR leukemia it was below 0.01 µM; in the assay with HL-60(TB) leukemia, 0.0175 µM; in the assay with NCI-H522 lung, below 0.0246 µM; with UO-31 renal, 0.0387 µM. The GI50 in the assay with OVCAR-5 ovarian is 0.0378 µM; with OVCAR-3 ovarian, 0.061 µM; with HCT-116 colon, below 0.0157 µM; in the assay with CCRF-CEM leukemia, below 0.0187 µM. Also, the TGI in the assay with OVCAR-4 ovarian was 0.649 µM; with SNB-75 CNS it was 0.308 µM; in the assay with HL-60(TB) leukemia, 0.198 µM; with NCI-H522 lung, 0.255 µM; with UO-31 renal it was 1.4 µM; with OVCAR-5 ovarian, above 100 µM. The TGI with OVCAR-3 ovarian and in the assay with CCRF-CEM leukemia was above 100 µM in each case.
Take `O=C(/C=C\Sc1nccc(C(F)(F)F)n1)c1ccc(Br)cc1`: the GI50 in the assay on OVCAR-4 ovarian is 20.4 µM; in the assay on SNB-75 CNS, 28.9 µM; in the assay on SR leukemia, 11.1 µM; with HL-60(TB) leukemia, 0.84 µM; in the assay with NCI-H522 lung, 15 µM; in the assay with UO-31 renal, 18.7 µM. In addition, the GI50 in the assay with OVCAR-5 ovarian is 21.8 µM; with OVCAR-3 ovarian, 14.9 µM; in the assay with HCT-116 colon, 12.8 µM; in the assay on CCRF-CEM leukemia, 3.68 µM. Moreover, the TGI is 45.8 µM in the assay on OVCAR-4 ovarian; above 100 µM in the assay with SNB-75 CNS; 26.3 µM in the assay on SR leukemia; 20.8 µM with HL-60(TB) leukemia; 33.2 µM with NCI-H522 lung; 34 µM with UO-31 renal. Besides, the TGI in the assay with OVCAR-5 ovarian was determined as 70.7 µM; in the assay with OVCAR-3 ovarian, 30.2 µM; with HCT-116 colon, 25.5 µM; with CCRF-CEM leukemia, 11.9 µM.
In the case of `C/C(=C\c1ccn(-c2ccc(N)cc2)n1)[C@@H]1C[C@@H]2O[C@]2(C)CCC[C@H](C)[C@H](O)[C@@H](C)C(=O)C(C)(C)[C@@H](O)CC(=O)O1`, the GI50 in the assay with OVCAR-4 ovarian is 0.401 µM; with SNB-75 CNS, 0.00754 µM; in the assay on SR leukemia, 0.027 µM; with HL-60(TB) leukemia it was 0.0437 µM; in the assay on NCI-H522 lung it was 0.0356 µM; in the assay with UO-31 renal, 0.251 µM. Also, the GI50 in the assay with OVCAR-5 ovarian was 0.107 µM; with OVCAR-3 ovarian it was 0.0175 µM; in the assay with HCT-116 colon, 0.0189 µM; with CCRF-CEM leukemia, 0.0338 µM. Further, the TGI in the assay on OVCAR-4 ovarian is above 50 µM; in the assay with SNB-75 CNS it was 0.233 µM; in the assay on SR leukemia, above 50 µM; with HL-60(TB) leukemia, above 50 µM; in the assay on NCI-H522 lung, 0.342 µM; in the assay with UO-31 renal, above 50 µM. Further, the TGI in the assay on OVCAR-5 ovarian is above 50 µM; in the assay on OVCAR-3 ovarian, 1.6 µM; in the assay on HCT-116 colon, above 50 µM; in the assay on CCRF-CEM leukemia, above 50 µM.
With `Cc1ccc(NC(=O)c2ccnc(N3CCCC3)c2)cc1-c1ccc(C(=O)NCC2CC2)cc1`, the GI50 is above 25 µM in the assay with OVCAR-4 ovarian; above 21.7 µM in the assay with SNB-75 CNS; 13 µM in the assay on SR leukemia; above 25 µM in the assay with HL-60(TB) leukemia; above 25 µM in the assay on NCI-H522 lung; above 25 µM with UO-31 renal. Further, the GI50 in the assay on OVCAR-5 ovarian is above 25 µM; in the assay with OVCAR-3 ovarian it was above 25 µM; with HCT-116 colon it was above 23.8 µM; in the assay on CCRF-CEM leukemia it was above 25 µM. Moreover, the TGI with OVCAR-4 ovarian, in the assay with SNB-75 CNS, with SR leukemia, with HL-60(TB) leukemia, with NCI-H522 lung and in the assay on UO-31 renal was above 25 µM each time. In addition, the TGI in the assay on OVCAR-5 ovarian, with OVCAR-3 ovarian, in the assay with HCT-116 colon and in the assay with CCRF-CEM leukemia was above 25 µM throughout.
For the compound `O=C1/C(=C/c2ccc(Cl)cc2)CN(C(=O)C(Cl)Cl)C/C1=C\c1ccc(Cl)cc1`, the GI50 in the assay on OVCAR-4 ovarian was 0.283 µM; in the assay with SNB-75 CNS, 0.161 µM; in the assay with SR leukemia, 0.0395 µM; in the assay on HL-60(TB) leukemia, 0.291 µM; with NCI-H522 lung it was 0.31 µM; with UO-31 renal, 0.156 µM. In addition, the GI50 with OVCAR-5 ovarian was 0.287 µM; in the assay on OVCAR-3 ovarian, 0.151 µM; in the assay on HCT-116 colon, 0.0336 µM; in the assay on CCRF-CEM leukemia, 0.0742 µM. In addition, the TGI in the assay with OVCAR-4 ovarian is 1.32 µM; in the assay with SNB-75 CNS, 0.509 µM; in the assay on SR leukemia, above 40.1 µM; in the assay on NCI-H522 lung it was 1.4 µM; in the assay with UO-31 renal, 0.3 µM; in the assay with OVCAR-5 ovarian, 0.799 µM. For the same compound, the TGI is 0.407 µM with OVCAR-3 ovarian, 0.13 µM in the assay on HCT-116 colon and above 59.3 µM in the assay with CCRF-CEM leukemia.

Values taken from PubChem BioAssay (NCI).
